Data: patent publication US20250064807A1, “Promoting Hair Growth and Treatment of Hair Loss or Excessive Hair Shedding” (Samson Clinical Pty Ltd, priority 2017, published 2025)
“And” between values parts separate entries of the source, which are not always exact repeats. Identical values can stand only once. “Also recorded” adds a separate entry of the source. Like-named read-outs stand apart in the source and are kept apart here.

How the values were obtained:
women = test: Hair count after 12 weeks of daily sublingual minoxidil troche (Example 6); assay type: in vivo, human; settings: individual patients 1-3, listed as sublingual minoxidil
men and women with AGA = test: Hair regrowth by macrophotography hair counts and global photography (Example 7); assay type: in vivo, human
Method: Hair counts were performed on dermatoscopic images taken at baseline and after 6 weeks. […] Steady state serum levels were measured after 8 weeks of daily dosing.

[1] = system: women aged 20-68 with Sinclair stages 2-5 FPHL; test: Head to head study topical 5% minoxidil once daily vs oral minoxidil 1 mg daily, 24 weeks (data on file); assay type: in vivo, human; settings: for additional hairs on scalp from increase in hair density: scalp area 630 cm^2; for mean increase in terminal hair count: 24 weeks
[2] = system: patients with FPHL or MPHL; test: Randomized double-blind study of 0.45 mg sublingual minoxidil, week 8 interim hair assessments (Example 8); assay type: in vivo, human
Method: Participants receive study medication for 24 weeks followed by a follow-up visit 4 weeks later.
The aim is to enroll 40 participants.
Number of participants completed Week 8: 12 (2 females, 10 males). […] This timepoint represents a third of the planned treatment period for the study (24 weeks). Data from these 12 participants have been analysed at the 8 week mark. Analysis was performed blind as the study is still ongoing.
The minimum criteria for hair loss severity in female participants is a Grade 2 and maximum is Grade 5. ISA at Screening was Sinclair Scale 2 and 3 for each female participant. […] As the study is ongoing and medication blind still stands, the final outcome of change in hair density (at Week 24) cannot be concluded in this report. The minimum criteria for enrolment for male participants is Grade III-Vertex and maximum is VI.
Standardized global photography are taken at Study Weeks 0 (prior to dispensing of medication) and 8. Subsequent Week 16, 24 and 28 visits will also include global photography. A vertex and frontal scalp photograph is taken from a fixed height with a dedicated SLR camera. Current collated global photographs for all 12 patients were assessed by a blinded assessor. Comparison photographs between Baseline and Week 8 was provided to the designated blinded assessor.
Initial assessment of Dermatology Life Quality Index (DLQI) for males and Women's AGA Quality of Life Questionnaire (WAA-QOL): Responses by female participants was generally more negative corresponding to a higher score at both Baseline and Week 8 visits. The impact on Quality of Life was more pronounced in comparison to the male participants. […] A full score of 38 represented dissatisfaction with current hair growth. The mean score was 25 (SD: 2.19) at Week 0 and 24.7 (SD: 4.08) at Week 8. The median score from all 10 male participants was 24.5 and 25 respectively. Both female patients reported an average of Grade 3 with the Sinclair Scale (FIG. 1 above) at Baseline visit and subsequent Week 8 visit. This was consistent with the Investigator's grade of their hair loss severity.

[3] = Stability and beyond use of minoxidil and compounded dosage forms; assay type: physicochemical; settings: 110° C. for 30 minutes
[4] = for minoxidil in serum samples at steady state: 0.45 mg sublingually daily for a minimum of 6 weeks
Method: (§1) Hair counts were performed on dermatoscopic images taken at baseline and after 6 weeks. […] Steady state serum levels were measured after 8 weeks of daily dosing. 13 patients had hair counts performed.

[5] = for blood pressure after first dose / at time of peak concentration: single sublingual dose 0.45 mg; for adverse events / side effects: sublingual minoxidil 0.45 mg, b166: 30 patients, 2 to 12 months
Method: as §1

[6] = cited from earlier work
men with MPHL = settings: cited from earlier work
[7] = cited from earlier work; for mean serum concentration after topical application: scalp, twice daily; for peak serum concentration: one hour post-dose
[8] = Minoxidil serum levels after a single sublingual dose (Example 7); settings: for minoxidil in the serum after 2 hours: single sublingual dose 0.45 mg
[9] = Assessment of sublingual minoxidil on patient blood pressure (Example 5); settings: 2.5 mg sublingual troche, 5 individuals, monitored 6 hours post administration
[10] = 0.25 mg sublingual troche daily, 12 weeks
[11] = 0.25 mg sublingual troche daily
[12] = 0.45 mg sublingually daily, minimum 6 weeks, 13 patients
[13] = 0.45 mg sublingually once daily
[14] = Baseline vs Week 8, blinded assessor, blind not broken
[15] = 30 patients, sublingual minoxidil for between 2 and 12 months

SMILES: Nc1cc(N2CCCCC2)nc(N)[n+]1[O-] [minoxidil, 2,4-Diamino-6-piperidinopyrimidine 3-oxide]
- terminal hair count at 12 weeks (figure legend) (women; [10]): 123 and 186 and 71
- vellus hair count at 12 weeks (women; [10]): 6 and 13
- total hair count at 12 weeks (women; 0.25 mg sublingual troche daily, 12 weeks, scalp section): 129 and 199 and 84
- increase in total hair count from baseline to 12 weeks (women; [11]): 21 hairs and 32 hairs and 23 hairs
- percent increase in total hair count from baseline to 12 weeks (women; [11]): 19.4% and 19.2% and 37.7%
- Hair Count at week 12 (women; Table 1, terminal hairs, 0.25 mg sublingual troche daily): 71 and 123 and 186
- Percentage increase (women; Table 1, week 12 vs baseline terminal hair count): 42% and 23% and 23.2%
- change in hair counts on frontal and vertex areas, all patients (men and women with AGA; 0.45 mg sublingually daily, 6 weeks, 13 patients): increased terminal hairs; also recorded: increase in hair counts
- hair density, clinic assessment (men and women with AGA; 0.45 mg sublingually daily, minimum 6 weeks, 2 patients): moderate increase (+2)
- mean increase in frontal scalp terminal hairs (men and women with AGA; [12]): 69.13 hairs/cm^2
- mean increase in vertex scalp terminal hairs (men and women with AGA; [12]): 97.38 hairs/cm^2
- range of increase in frontal scalp terminal hairs (men and women with AGA; [12]): 4-133 hairs/cm^2
- range of increase in vertex scalp terminal hairs (men and women with AGA; [12]): 31-253 hairs/cm^2
- hair regrowth compared with topical or oral minoxidil (men and women with AGA; [13]): greater and detected earlier
- increase from baseline in hair count on the vertex scalp (men and women with AGA; [13]): 52.5%
- increase from baseline in hair count over the frontal scalp (men and women with AGA; [13]): 36.5%
- hair regrowth compared with topical or oral minoxidil (men and women with AGA; 0.45 mg sublingually once daily, listed as sublingual minoxidil): grows more hair
- midline hair density, blinded assessment of global photography (men and women with AGA; 0.45 mg sublingually, 8 weeks, 5 of the patients): slight increase
- scalp global photographs at 6 weeks (men and women with AGA; 0.45 mg sublingually, all patients): either mild or moderate improvement
- additional hairs on scalp from increase in hair density ([1]; 7 hair/cm^2 increase (topical group)): 4600 hairs
- additional hairs on scalp from increase in hair density ([1]; 27 hair/cm^2 increase (oral group)): 17,000 hairs
- mean increase in terminal hair count ([1]; oral minoxidil 1 mg daily): 27 /cm^2
- mean increase in terminal hair count ([1]; topical 5% minoxidil once daily): 7 /cm^2
- Investigator scalp assessment, Sinclair Scale, change at Week 8 ([2]; 0.45 mg sublingual once daily, individual female participants, blind not broken, listed as sublingual minoxidil): slight increase from grade 3 to 2; also recorded: no change
- Men's Hair Growth Questionnaire median score at Week 8 ([2]; 10 male participants): 25
- Men's Hair Growth Questionnaire scores, Week 0 vs Week 8 ([2]; 10 male participants): No significant difference
- Men's Hair Growth Questionnaire mean score at Week 8 ([2]; 10 male participants, full score 38 = dissatisfaction): 24.7 (SD: 4.08)
- participants (of 12) whose assessment suggests a slight to moderate increase in hair density [2, 14]: Eight
- participants (of 12) whose global photography suggests a decrease in hair density [2, 14]: 2 participants
- patient reported Sinclair Scale grade at Week 8 (average) ([2]; both female patients, same at Baseline): 3 Grade
- thermal stability [3]: stable
- minoxidil in serum samples at steady state [4]: No minoxidil was detected
- minoxidil in serum samples at steady state ([4]; listed as sublingual minoxidil): not detected
- accumulation with continuous dosing ([4]; continuous sublingual dosing): does not accumulate
- biochemical abnormality [5, 15]: No biochemical abnormality was detected
- hypertrichosis, tachycardia, fluid retention or postural hypotension [5, 15]: No patient developed hypertrichosis, tachycardia, fluid retention or postural hypotension
- mean blood pressure [5, 15]: no reduction
- blood pressure after first dose / at time of peak concentration [5]: unaffected
- blood pressure after first dose / at time of peak concentration ([5]; listed as sublingual minoxidil): no change
- adverse events / side effects [5]: No adverse events were noted
- adverse events / side effects ([5]; listed as sublingual minoxidil): No side effects were reported
- adverse events at Week 8 visit (0.45 mg sublingual once daily, 12 participants, blind not broken): No significant adverse events
- blood pressure readings, day of randomization vs Week 8 (12 participants): not significant
- respiratory rate and tympanic temperature (12 participants): within normal range
- safety blood profile (Week 8, 12 participants): within the normal range
- effect on blood pressure in hypertensive patients ([6]; oral, 5 to 100 mg daily): profound reduction in blood pressure
- effect on blood pressure of normotensive individuals ([6]; oral, 5 to 100 mg daily): minimal effect
- effect on blood pressure or pulse rate ([6]; topical): minimal effect
- serum concentration threshold for any hemodynamic response ([6]; twelve hour steady state intravenous infusions (Ferry et al., 1996)): 20 ng/mL
- men with MPHL with arrest of hair loss or mild to moderate hair regrowth (men with MPHL; applied topically): approximately 60%
- average increase in hair count (men with MPHL; topical, 5% concentration, 12 months): 12.3%
- mean serum concentration after topical application ([7]; 2% minoxidil (20 mg/ml)): 0.7 ng/mL
- mean serum concentration after topical application ([7]; 5% minoxidil (50 mg/ml)): 1.8 ng/mL
- absorption through the gastrointestinal tract ([7]; in vivo, po): > 90%
- peak serum concentration ([7]; oral dose 2.5 mg): 18.5 ng/mL
- peak serum concentration ([7]; oral dose 5 mg): 41 ng/mL
- highest serum level recorded ([7]; topical application): 18.2 ng/mL
- minoxidil in the serum after 2 hours [8]: no detectable minoxidil; also recorded: undetectable
- minoxidil in the serum after 2 hours ([8]; listed as sublingual minoxidil): no detectable minoxidil
- circulating minoxidil after 1 hour ([8]; sublingual dosing): undetectable
- adverse symptoms, postural hypotension or change in blood pressure [9]: No adverse symptoms, postural hypotension or change in blood pressure was noted
